15 molecules from US10710980B2, “Aminopyridine derivatives and their use as selective ALK-2 inhibitors” (priority 2016, dated 2020) can be followed below.

pIC50: −log10 of the molar value.

In one test the target is ALK1 (aa166-493) (Homo sapiens (Human), UniProt P37023). Description: Caliper biochemical peptide phosphorylation assay, ALK1. As to conditions: 15 μm ATP, 60 min at 30° C.; read-out: ALK1 EPK (IC50).
Test [1] deals with T1, wild-type ALK2 (aa172-499) (Homo sapiens (Human), UniProt Q04771). Description: ADPGlo biochemical autophosphorylation assay, ALK2. As to conditions: 15 μm ATP, 60 min at 32° C. For orientation: ADP-Glo first removes unused ATP, then detects ADP through luciferase.
T1 sequence (Q04771 172-499): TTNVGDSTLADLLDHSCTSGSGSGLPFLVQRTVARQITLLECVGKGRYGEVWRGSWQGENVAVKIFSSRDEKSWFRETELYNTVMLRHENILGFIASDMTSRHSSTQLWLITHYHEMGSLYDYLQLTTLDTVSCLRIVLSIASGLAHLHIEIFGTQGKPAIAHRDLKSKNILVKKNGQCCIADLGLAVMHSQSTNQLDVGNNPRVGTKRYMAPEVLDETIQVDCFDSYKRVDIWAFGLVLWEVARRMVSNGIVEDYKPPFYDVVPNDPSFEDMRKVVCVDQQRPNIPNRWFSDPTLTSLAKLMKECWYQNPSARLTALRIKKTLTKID
The next test has as its target ALK3 (aa198-525) (Homo sapiens (Human), UniProt P36894). Description: ADPGlo biochemical autophosphorylation assay, ALK3. As to conditions: 15 μm ATP, 60 min at 32° C.
Another test addresses ALK5 (aa162-503) (Homo sapiens (Human), UniProt P36897). As to the kind of experiment: Caliper biochemical peptide phosphorylation assay, ALK5. As to conditions: 15 μm ATP, 60 min at 30° C.; read-out: ALK5 EPK (IC50).
Test [2] deals with T1, wild-type ALK2 (aa172-499). Description: Caliper biochemical peptide phosphorylation assay, ALK2. The settings on record: 15 μm ATP, 60 min at 30° C.; read-out: ALK2 EPK (IC50).
For another test, the target named is ALK6 (aa168-495) (Homo sapiens (Human), UniProt O00238). Description: Caliper biochemical peptide phosphorylation assay, ALK6. The settings on record: 15 μm ATP, 60 min at 30° C.; read-out: ALK6 EPK (IC50).
Chain of ALK6 (aa168-495) (O00238 168-495): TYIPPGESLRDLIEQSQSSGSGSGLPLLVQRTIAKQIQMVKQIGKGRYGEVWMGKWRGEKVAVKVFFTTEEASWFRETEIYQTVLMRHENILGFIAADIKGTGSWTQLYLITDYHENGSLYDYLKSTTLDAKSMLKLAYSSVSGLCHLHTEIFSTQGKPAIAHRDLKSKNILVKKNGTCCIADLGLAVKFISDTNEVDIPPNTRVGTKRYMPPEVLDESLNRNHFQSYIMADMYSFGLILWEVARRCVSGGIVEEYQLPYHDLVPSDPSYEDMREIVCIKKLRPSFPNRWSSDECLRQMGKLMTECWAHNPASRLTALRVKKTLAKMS
Test [3] has as its system BMP response element (BRE) luciferase reporter in HuH7 cells, BMP6 stimulated. Description: BMP signaling reporter gene assay. The settings on record: Homo sapiens, Huh-7; HuH7 BRE-luciferase, BMP6 100 ng/ml, 5 hours; read-out: MSD BMP RGA IC50. The class given is cell-based. (In general: In a reporter assay the amount or activity of a reporter protein is the signal.)

Chain of ALK3 (aa198-525) (P36894 198-525): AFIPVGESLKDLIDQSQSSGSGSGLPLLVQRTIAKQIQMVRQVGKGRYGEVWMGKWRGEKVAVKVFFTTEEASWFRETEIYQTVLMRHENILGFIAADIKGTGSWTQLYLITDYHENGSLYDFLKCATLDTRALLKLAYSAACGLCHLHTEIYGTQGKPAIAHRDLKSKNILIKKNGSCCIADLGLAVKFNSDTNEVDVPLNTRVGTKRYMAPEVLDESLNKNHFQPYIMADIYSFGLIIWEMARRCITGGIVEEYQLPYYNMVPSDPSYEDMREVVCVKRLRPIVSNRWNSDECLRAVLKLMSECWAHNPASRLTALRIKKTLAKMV
Chain of ALK1 (aa166-493) (P37023 166-493): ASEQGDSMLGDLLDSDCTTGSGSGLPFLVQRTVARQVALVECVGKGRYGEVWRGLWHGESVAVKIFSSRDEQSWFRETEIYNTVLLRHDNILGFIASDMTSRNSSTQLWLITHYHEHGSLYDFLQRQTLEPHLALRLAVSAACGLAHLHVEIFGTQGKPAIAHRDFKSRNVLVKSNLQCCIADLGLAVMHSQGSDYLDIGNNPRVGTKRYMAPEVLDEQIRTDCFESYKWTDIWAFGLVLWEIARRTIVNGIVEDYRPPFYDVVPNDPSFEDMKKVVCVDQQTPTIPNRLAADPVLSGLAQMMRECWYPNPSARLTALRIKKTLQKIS
Chain of ALK5 (aa162-503) (P36897 162-503): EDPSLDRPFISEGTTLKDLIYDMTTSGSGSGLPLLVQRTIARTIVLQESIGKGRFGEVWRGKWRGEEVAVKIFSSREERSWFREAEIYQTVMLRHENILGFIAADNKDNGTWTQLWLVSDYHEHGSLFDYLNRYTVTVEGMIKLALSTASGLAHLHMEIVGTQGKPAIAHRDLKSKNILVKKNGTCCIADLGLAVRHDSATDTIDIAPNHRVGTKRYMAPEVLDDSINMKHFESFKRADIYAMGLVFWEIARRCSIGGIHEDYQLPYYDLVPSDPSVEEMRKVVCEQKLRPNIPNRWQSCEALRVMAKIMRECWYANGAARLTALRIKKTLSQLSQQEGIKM

One may read the pIC50 as the negative decadic logarithm of the IC50, by convention in mol/L. Take `Nc1ncc(-c2ccc([C@@]34C[C@@H]3CN(C3CCS(=O)(=O)CC3)C4)cc2)cc1C(=O)N[C@H]1CC[C@H](O)CC1` [Example 44, 2-amino-5-(4-((1R,5S)-3-(1,1-dioxidotetrahydro-2H-thiopyran-4-yl)-3-azabicyclo[3.1.0]hexan-1-yl)phenyl)-N-((1r,4R)-4-hydroxycyclohexyl)nicotinamide]: the negative-log IC50 (pIC50) is 6.77 on ALK1 (aa166-493); 7.74 in test [1]; 6.37 on ALK3 (aa198-525); 5.49 on ALK5 (aa162-503); 7.62 in test [2]; 5.70 on ALK6 (aa168-495). In addition, the pIC50 in test [3] was 6.44.

Turning to `CC#CCN1C[C@@H]2C[C@]2(c2ccc(-c3cnc(N)c(C(=O)N[C@H]4CC[C@H](O)CC4)c3)cc2)C1` [Example 37, 2-amino-5-(4-((1S,5R)-3-(but-2-yn-1-yl)-3-azabicyclo[3.1.0]hexan-1-yl)phenyl)-N-((1r,4S)-4-hydroxycyclohexyl)nicotinamide], the pIC50 at ALK1 (aa166-493) was 7.00; in test [1], 8.10; against ALK3 (aa198-525), 6.02; on ALK5 (aa162-503), 5.96; in test [2], 7.57; on ALK6 (aa168-495), 5.77. Moreover, the pIC50 in test [3] is 7.43.

Regarding `Nc1ncc(-c2ccc([C@@]34C[C@@H]3CN(CCN3CCOCC3)C4)cc2)cc1C(=O)NC12CCC(O)(CC1)CC2` [Example 15, 2-amino-N-(4-hydroxybicyclo[2.2.2]octan-1-yl)-5-(4-((1R,5S)-3-(2-morpholinoethyl)-3-azabicyclo[3.1.0]hexan-1-yl)phenyl)nicotinamide], the pIC50 was 6.43 at ALK1 (aa166-493); 7.54 in test [1]; 6.01 on ALK3 (aa198-525); 5.42 on ALK5 (aa162-503); 7.70 in test [2]; 5.65 at ALK6 (aa168-495). In test [3], the pIC50 was 7.13.

As for `Nc1ncc(-c2ccc(OCCCN3CCCCC3)cc2)cc1C(=O)NC1CCCCC1` [Example 43, 2-amino-N-cyclohexyl-5-(4-(3-(piperidin-1-yl)propoxy)phenyl)nicotinamide], the pIC50 on ALK1 (aa166-493) was 6.12; in test [1], 7.51; against ALK3 (aa198-525), 5.63; at ALK5 (aa162-503) it was 5.46; in test [2], 7.60; on ALK6 (aa168-495), 4.96. For the same molecule, the negative logarithm of the IC50 (pIC50) in test [3] was 6.89.

`Nc1ncc(-c2ccc([C@]34C[C@H]3CN(C3CCOCC3)C4)cc2)cc1C(=O)NC12CC(CO)(C1)C2` [Example 28, 2-amino-N-(3-(hydroxymethyl)bicyclo[1.1.1]pentan-1-yl)-5-(4-((1S,5R)-3-(tetrahydro-2H-pyran-4-yl)-3-azabicyclo[3.1.0]hexan-1-yl)phenyl)nicotinamide]: the negative logarithm of the IC50 (pIC50) on ALK1 (aa166-493) is 6.60; in test [1] it was 7.96; against ALK3 (aa198-525) it was 6.28; on ALK5 (aa162-503), 5.03; in test [2], 7.74; on ALK6 (aa168-495) it was 5.48. Besides, the pIC50 in test [3] is 7.77.

With `COCCN1C[C@@H]2C[C@]2(c2ccc(-c3cnc(N)c(C(=O)NC45CCC(O)(CC4)CC5)c3)cc2)C1` [Example 7, 2-amino-N-(4-hydroxybicyclo[2.2.2]octan-1-yl)-5-(4-((1S,5R)-3-(2-methoxyethyl)-3-azabicyclo[3.1.0]hexan-1-yl)phenyl)nicotinamide], the negative-log IC50 (pIC50) on ALK1 (aa166-493) was 6.71; in test [1], 7.92; against ALK3 (aa198-525), 6.06; on ALK5 (aa162-503) it was 5.26; in test [2], 7.92; at ALK6 (aa168-495), 5.62. The pIC50 in test [3] is 7.29.

Regarding `C[C@@H]1CCCN1Cc1ccc(-c2cnc(N)c(C(=O)N[C@H]3CC[C@](C)(O)CC3)c2)c(F)c1F` [Example 74, 2-amino-5-(2,3-difluoro-4-(((R)-2-methylpyrrolidin-1-yl)methyl)phenyl)-N-((1r,4R)-4-hydroxy-4-methylcyclohexyl)nicotinamide], the pIC50 at ALK1 (aa166-493) is 5.60; in test [1], 7.19; against ALK3 (aa198-525) it was 4.88; at ALK5 (aa162-503) it was 5.00; in test [2], 7.15; on ALK6 (aa168-495) it was 5.00. Also, in test [3], the pIC50 was 6.26.

For `CC(C)N1C[C@@H]2C[C@]2(c2ccc(-c3cnc(N)c(C(=O)N[C@H]4CC[C@](C)(O)CC4)c3)cc2)C1` [Example 32, 2-amino-N-((1r,4S)-4-hydroxy-4-methylcyclohexyl)-5-(4-((1S,5R)-3-isopropyl-3-azabicyclo[3.1.0]hexan-1-yl)phenyl)nicotinamide], the pIC50 at ALK1 (aa166-493) was 6.13; in test [1], 7.66; against ALK3 (aa198-525), 4.90; at ALK5 (aa162-503) it was 5.49; in test [2], 7.70; on ALK6 (aa168-495), 5.48. Moreover, in test [3], the pIC50 is 7.03.

`Nc1ncc(-c2ccc([C@@]34C[C@@H]3CN(C3COC3)C4)cc2)cc1C(=O)NC12CCC(O)(CC1)CC2` [Example 64, 2-amino-N-(4-hydroxybicyclo[2.2.2]octan-1-yl)-5-(4-((1R,5S)-3-(oxetan-3-yl)-3-azabicyclo[3.1.0]hexan-1-yl)phenyl)nicotinamide]: the pIC50 was 6.00 on ALK1 (aa166-493); 6.96 in test [1]; 5.66 against ALK3 (aa198-525); 5.12 at ALK5 (aa162-503); 7.20 in test [2]; 5.42 on ALK6 (aa168-495). Further, in test [3], the pIC50 was 6.42.

Regarding `Nc1ncc(-c2ccc([C@]34C[C@H]3CN(C3CCOCC3)C4)cc2)cc1C(=O)NC12CCC(O)(CC1)CC2` [Example 42, 2-amino-N-(4-hydroxybicyclo[2.2.2]octan-1-yl)-5-(4-((1S,5R)-3-(tetrahydro-2H-pyran-4-yl)-3-azabicyclo[3.1.0]hexan-1-yl)phenyl)nicotinamide], the pIC50 at ALK1 (aa166-493) was 6.27; in test [1], 7.59; against ALK3 (aa198-525), 5.89; at ALK5 (aa162-503), 5.32; in test [2], 7.54; at ALK6 (aa168-495), 5.39. Besides, the pIC50 in test [3] is 6.63.

As to `Nc1ncc(-c2ccc(OCCCN3CCOCC3)cc2)cc1C(=O)NC1CCCCC1` [Example 52, 2-amino-N-cyclohexyl-5-(4-(3-morpholinopropoxy)phenyl)nicotinamide], the pIC50 on ALK1 (aa166-493) is 6.01; in test [1], 7.17; at ALK3 (aa198-525), 5.55; on ALK5 (aa162-503), 5.07; in test [2], 7.51; on ALK6 (aa168-495), 4.69. Besides, the negative-log IC50 (pIC50) in test [3] was 6.47.

Take `Nc1ncc(-c2ccc([C@]34C[C@H]3CN(C3CCC(F)(F)CC3)C4)cc2)cc1C(=O)NC12CCC(O)(CC1)CC2` [Example 35, 2-amino-5-(4-((1S,5R)-3-(4,4-difluorocyclohexyl)-3-azabicyclo[3.1.0]hexan-1-yl)phenyl)-N-(4-hydroxybicyclo[2.2.2]octan-1-yl)nicotinamide]: the pIC50 on ALK1 (aa166-493) was 6.55; in test [1] it was 7.77; against ALK3 (aa198-525) it was 6.04; on ALK5 (aa162-503), 5.24; in test [2], 7.68; at ALK6 (aa168-495) it was 5.35. In addition, in test [3], the pIC50 is 7.14.

With `C[C@H](c1ccc(-c2cnc(N)c(C(=O)N[C@H]3CC[C@H](O)CC3)c2)c(Cl)c1)N1CC2(COC2)C1` [Example 55, 5-(4-((R)-1-(2-oxa-6-azaspiro[3.3]heptan-6-yl)ethyl)-2-chlorophenyl)-2-amino-N-((1r,4R)-4-hydroxycyclohexyl)nicotinamide], the pIC50 on ALK1 (aa166-493) is 6.20; in test [1] it was 7.66; at ALK3 (aa198-525), 5.61; on ALK5 (aa162-503) it was 5.30; in test [2] it was 7.52; at ALK6 (aa168-495) it was 5.54. In test [3], the pIC50 was 6.27.

Turning to `Nc1ncc(-c2ccc([C@@]34C[C@@H]3CN(C3CCC(F)(F)CC3)C4)cc2)cc1C(=O)NC12CCC(O)(CC1)CC2` [Example 80, 2-amino-5-(4-((1R,5S)-3-(4,4-difluorocyclohexyl)-3-azabicyclo[3.1.0]hexan-1-yl)phenyl)-N-(4-hydroxybicyclo[2.2.2]octan-1-yl)nicotinamide], the negative logarithm of the IC50 (pIC50) was 6.17 on ALK1 (aa166-493); 7.24 in test [1]; 5.74 against ALK3 (aa198-525); 5.18 at ALK5 (aa162-503); 7.06 in test [2]; 5.34 on ALK6 (aa168-495). Besides, the pIC50 in test [3] was 7.24.

Turning to `C[C@]1(O)CC[C@H](NC(=O)c2cc(-c3ccc([C@@]45C[C@@H]4CN(C4CCC(F)(F)CC4)C5)cc3)cnc2N)CC1` [Example 82, 2-amino-5-(4-((1R,5S)-3-(4,4-difluorocyclohexyl)-3-azabicyclo[3.1.0]hexan-1-yl)phenyl)-N-((1r,4R)-4-hydroxy-4-methylcyclohexyl)nicotinamide], the pIC50 is 5.80 at ALK1 (aa166-493); 7.09 in test [1]; 5.02 on ALK3 (aa198-525); 5.00 at ALK5 (aa162-503); 6.93 in test [2]; 5.00 on ALK6 (aa168-495). For the same molecule, the pIC50 in test [3] is 7.25.
